Source: patent publication US20090123391A1, “Novel Formulations” (3M INNOVATIVE PROPERTIES COMPANY, priority 2006, published 2009)

Assays:
[1] = Dose Through Unit (DTU) dose uniformity of MDI; assay type: physicochemical; details: for overall mean dose of medicament delivered through the actuator, combining beginning and end of use doses: MDI, Compound A 22.5 μg; for overall mean dose of medicament delivered through the actuator, combining beginning and end of use doses / overall mean dose delivered through the actuator, combined beginning and end of use: HFA 134a; for overall mean dose delivered through the actuator, combined beginning and end of use: Example 5: Compound E in combination with Compound A, MDI 100/50 μg/act, target output Compound E 90 μg, Compound A 45 μg; for overall mean dose delivered through the actuator, combining beginning and end of use: Example 4: Compound A in combination with Compound D, HFA-134a MDI 100/100 μg/act, target output compound D 90 μg, compound A 90 μg
Procedure: The dose collection apparatus (500 ml separatory funnel with a cotton plug) was assembled and the flow rate was set to 20 L/min. Test units were stored at ambient conditions for two weeks after manufacture prior to DTU testing. For the testing at the beginning of the unit, the MDIs were primed two times with a priming actuator and four times to waste with the test actuator, shaking the units between each actuation. Two test actuations were collected in the dose collection apparatus, shaking the unit between actuations. The collection apparatus was rinsed with an appropriate volume of diluent, and the rinsate with the collected dose was analyzed by conventional HPLC analysis. For end of unit testing, the MDIs were actuated an additional 48 times to waste, shaking between each actuation. The MDIs were then actuated four times to waste through a new test actuator. Two test actuations were then collected in the dose collection apparatus, shaking the unit between actuations. The collection apparatus was rinsed with an appropriate volume of diluent, and the rinsate with the collected dose was analyzed by conventional HPLC analysis.
The reported results are the average of ten units at both the beginning and end of unit use.

[2] = Andersen Cascade Impactor (ACI) fine particle fraction of MDI; assay type: physicochemical; details: for Fine Particle Fraction expressed as a percentage of the total dose target, for Compound B, 10 μg and for the Compound A, 25 μg: Example 2: Compound A in combination with Compound B; for Fine Particle Fraction expressed as a percentage of the total dose target, for Compound B, 10 μg and for the Compound A, 25 μg / Fine Particle Fraction (FPF) expressed as a percentage of the total dose target, for Compound C, 12.5 μg and for Compound A, 25 μg: MDI; for Fine Particle Fraction expressed as a percentage of the total dose target, for Compound B, 10 μg and for the Compound A, 25 μg / Fine Particle Fraction (FPF) expressed as percentage of the total dose target of Compound E, 100 μg and for Compound A, 50 μg / Fine Particle Fraction (FPF) expressed as a percentage of the total dose target, for Compound C, 12.5 μg and for Compound A, 25 μg: HFA 134a; for Fine Particle Fraction (FPF) expressed as percentage of the total dose target of Compound E, 100 μg and for Compound A, 50 μg: Example 5: Compound E in combination with Compound A, MDI 100/50 μg/act; for Fine Particle Fraction (FPF) expressed as a percentage of the total dose target, for Compound D, 100 μg, and for Compound A, 100 μg: Example 4: Compound A in combination with Compound D, HFA-134a MDI 100/100 μg/act; for Fine Particle Fraction (FPF) expressed as a percentage of the total dose target, for Compound C, 12.5 μg and for Compound A, 25 μg: Example 3: Compound A in combination with Compound C, 25/12.5 μg/act
Source text: The fine particle fraction of the aerosol formulations according to the invention may be measured by conventional techniques, for example, by cascade impaction by measuring particle size distribution. The Cascade Impactor is designed to mimic the human buccal cavity and bronchial tract and the cascade Impactor test is designed to reveal the amount of deposition of inhaled drug substance at various stages thereof. As used herein reference to the “cascade impaction” assay means determination of the deposition of the emitted dose in pressurised inhalations as defined in European Pharmacopoeia, Section 2.9.18, 5th edition “Preparations for Inhalation, Apparatus D”. Such techniques enable the “respirable fraction” of the aerosol formulations to be calculated. One method used to calculate the “respirable fraction” is by reference to “fine particle fraction” which is the amount of active ingredient collected in stages 3 to 5 (aerodynamic diameter 1.1-4.7 μm) which represents the lung, per actuation expressed as a percentage of the total amount of active ingredient delivered per actuation using the cascade impactor method described above. Earlier stages represent the aerosol device itself, the throat and the upper reaches of the bronchial tract, and the later stages representing potential systemic absorption through the wall of the lung which may cause serious side effects.
The Andersen Cascade Impactor Mark II (ACI) was assembled and the flow rate was set to 28.3 L/min. The units were primed four times with the test actuator prior to dose collection, shaking between actuations. Between 5 and 20 actuations were collected in the ACI assembly. The ACI was disassembled and the components were rinsed with an appropriate amount of solvent that ensures dissolution of all formulation ingredients. The rinsate was collected for analysis by conventional HPLC analysis.

[3] = 0.1% w/w of polymer of formula (II), 12 Week at 40° C./75% relative humidity
[4] = 0.1% w/w of polymer of formula (II), Initial

O=CNc1cc([C@@H](O)CNCCc2ccc(NC[C@H](O)c3ccccc3)cc2)ccc1O [Compound B]
overall mean dose of medicament delivered through the actuator, combining beginning and end of use doses ([1]; Example 2: Compound A in combination with Compound B, 25/10 μg/act, 0.1% w/w of polymer of formula (II), 12 Week at 40° C./75% relative humidity, target output Compound B 8.5 μg): 99%
overall mean dose of medicament delivered through the actuator, combining beginning and end of use doses ([1]; Example 2: Compound A in combination with Compound B, 25/10 μg/act, 0.1% w/w of polymer of formula (II), Initial, target output Compound B 8.5 μg): 98%
overall mean dose of medicament delivered through the actuator, combining beginning and end of use doses ([1]; Example 2: Compound A in combination with Compound B, 25/10 μg/act, surfactant-free, 12 Week at 40° C./75% relative humidity, target output Compound B 8.5 μg): 73%
overall mean dose of medicament delivered through the actuator, combining beginning and end of use doses ([1]; Example 2: Compound A in combination with Compound B, 25/10 μg/act, surfactant-free, Initial, target output Compound B 8.5 μg): 71%
Fine Particle Fraction expressed as a percentage of the total dose target, for Compound B, 10 μg and for the Compound A, 25 μg [2, 3]: 26%
Fine Particle Fraction expressed as a percentage of the total dose target, for Compound B, 10 μg and for the Compound A, 25 μg [2, 4]: 25%
Fine Particle Fraction expressed as a percentage of the total dose target, for Compound B, 10 μg and for the Compound A, 25 μg ([2]; surfactant-free, 12 Week at 40° C./75% relative humidity): 21%
Fine Particle Fraction expressed as a percentage of the total dose target, for Compound B, 10 μg and for the Compound A, 25 μg ([2]; surfactant-free, Initial): 20%

COc1ccc(Nc2ccc(CCNCC(O)c3ccc(O)c4[nH]c(=O)ccc34)cc2)cc1-c1ccccc1 (stereo not drawn) [Compound E, N-{2-[4-(3-phenyl-4-methoxyphenyl)aminophenyl]ethyl}-2-hydroxy-2-(8-hydroxy-2(1H)-quinolinon-5-yl)ethylamine]
overall mean dose delivered through the actuator, combined beginning and end of use [1, 3]: 106%
overall mean dose delivered through the actuator, combined beginning and end of use [1, 4]: 104%
Fine Particle Fraction (FPF) expressed as percentage of the total dose target of Compound E, 100 μg and for Compound A, 50 μg [2, 3]: 28%
Fine Particle Fraction (FPF) expressed as percentage of the total dose target of Compound E, 100 μg and for Compound A, 50 μg [2, 4]: 26%

OCc1cc([C@@H](O)CNCCCCCCOCCOCc2c(Cl)cccc2Cl)ccc1O [Compound D, 4-{(1R)-2-[(6-{2-[(2,6-dichlorobenzyl)oxy]ethoxy}hexyl)amino]-1-hydroxyethyl}-2-(hydroxymethyl) phenol]
overall mean dose delivered through the actuator, combining beginning and end of use [1, 3]: 104%
overall mean dose delivered through the actuator, combining beginning and end of use [1, 4]: 101%
Fine Particle Fraction (FPF) expressed as a percentage of the total dose target, for Compound D, 100 μg, and for Compound A, 100 μg [2, 3]: 27%
Fine Particle Fraction (FPF) expressed as a percentage of the total dose target, for Compound D, 100 μg, and for Compound A, 100 μg [2, 4]: 32%

NS(=O)(=O)c1cccc(CCCCOCCCCCCNC[C@H](O)c2ccc(O)c(CO)c2)c1 [Compound C, 3-(4-{[6-({(2R)-2-hydroxy-2-[4-hydroxy-3-(hydroxymethyl)-phenyl]ethyl}amino)hexyl]oxy}butyl)benzenesulfonamide]
overall mean dose of medicament delivered through the actuator, combining beginning and end of use doses ([1]; Example 3: Compound A in combination with Compound C, 25/12.5 μg/act, 0.1% w/w polymer of formula (II), 12 Week at 40° C./75 relative humidity, target output Compound C 11.3 μg): 112%
overall mean dose of medicament delivered through the actuator, combining beginning and end of use doses ([1]; Example 3: Compound A in combination with Compound C, 25/12.5 μg/act, 0.1% w/w polymer of formula (II), Initial, target output Compound C 11.3 μg): 96%
overall mean dose of medicament delivered through the actuator, combining beginning and end of use doses ([1]; Example 3: Compound A in combination with Compound C, 25/12.5 μg/act, surfactant-free, 12 Week at 40° C./75 relative humidity, target output Compound C 11.3 μg): 90%
overall mean dose of medicament delivered through the actuator, combining beginning and end of use doses ([1]; Example 3: Compound A in combination with Compound C, 25/12.5 μg/act, surfactant-free, Initial, target output Compound C 11.3 μg): 80%
Fine Particle Fraction (FPF) expressed as a percentage of the total dose target, for Compound C, 12.5 μg and for Compound A, 25 μg ([2]; 0.1% w/w polymer of formula (II), 12 Week 40° C./75 relative humidity): 25%
Fine Particle Fraction (FPF) expressed as a percentage of the total dose target, for Compound C, 12.5 μg and for Compound A, 25 μg ([2]; 0.1% w/w polymer of formula (II), Initial): 28%
Fine Particle Fraction (FPF) expressed as a percentage of the total dose target, for Compound C, 12.5 μg and for Compound A, 25 μg ([2]; surfactant-free, 12 Week 40° C./75 relative humidity): 21%
Fine Particle Fraction (FPF) expressed as a percentage of the total dose target, for Compound C, 12.5 μg and for Compound A, 25 μg ([2]; surfactant-free, Initial): 14%
